Data reported in patent publication US7879887B2, “α-amino acid derivatives and medicaments containing the same as an active ingredient” (Nissan Chemical Industries, Ltd., priority 2006, dated 2011).

Experiments:
CDK2/Cyclin E complex = CDK2/Cyclin E complex (Homo sapiens, UniProt P24941); test: In vitro kinase assay, CDK2/Cyclin E complex; assay type: biochemical; settings: recombinant protein (Upstate); read-out: CDK2/cyclinE IC50
Experimental: (§1) Inhibitory activity against Aurora A, CDK1/Cyclin B complex, CDK2/Cyclin E complex and CDK3/Cyclin E complex were measured by in vitro kinase assay using recombinant proteins.

CDK3/Cyclin E complex = target: T1, CDK3/Cyclin E complex (Homo sapiens, UniProt Q00526); test: In vitro kinase assay, CDK3/Cyclin E complex; assay type: biochemical; settings: recombinant protein (Upstate); read-out: CDK3/cyclinE IC50
T1 construct: purchased Upstate Inc. 14-487
Experimental: as §1

[1] = system: colon carcinoma cell line SW620; test: Cell proliferation inhibitory activity, SW620; assay type: cell-based, human; settings: cells counted 4 days later with Cell Counting Kit-8
Method in brief: (§2)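 Cells grown under supplier-recommended conditions were exposed to serial concentrations of test compound at 37° C in 5% CO2. After 4 days, cell number was measured with Cell Counting Kit-8, and IC50 was derived with untreated wells as 0% and cell-free, compound-free wells as 100% inhibition.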

[2] = system: breast cancer cell line MDA-MB-231; test: Cell proliferation inhibitory activity, MDA-MB-231; assay type: cell-based; settings: cells counted 4 days later with Cell Counting Kit-8
Experimental: (§3) Evaluations were carried out using colon carcinoma cell line SW620 (Cat. No. CCL-227), lung carcinoma cell line NCI-H460 (Cat. No. HTB-177), prostate cancer cell line DU 145 (Cat. No. HTB-81), breast cancer cell line MDA-MB-231 (Cat. No. HTB26) and leukemia cell line KG-1a (Cat. No. CCL-246.1) purchased from ATCC, pancreatic cancer cell line MIAPaCa-2 (Cat. No. CRL-1420) purchased from Dainippon Pharmaceutical, and ovarian cancer cell line IGROV1 received from the Netherland Cancer Institute. The cells were cultured under the conditions recommended by the supplier for each cell line, or with respect to IGROV1, according to the method described in Cancer Res. 59: 4559-4563, 1999. Cells suspended in media were added to solutions containing the test substances at various concentrations followed by culturing in a 5% CO2 incubator at 37° C. The numbers of cells were counted 4 days later with the Cell Counting Kit-8. IC50 values were calculated by assigning measured values in the case of not containing a test substance to an inhibition of 0%, and assigning measured values in the case of not containing a test substance or cells to an inhibition of 100%.

[3] = system: ovarian cancer cell line IGROV1; test: Cell proliferation inhibitory activity, IGROV1; assay type: cell-based; settings: cells counted 4 days later with Cell Counting Kit-8
Experimental: as §3

leukemia cell line KG-1a = test: Cell proliferation inhibitory activity, KG-1a; assay type: cell-based; settings: Homo sapiens, 96 h, cells counted 4 days later with Cell Counting Kit-8
Method in brief: as §2

[4] = system: prostate cancer cell line DU 145; test: Cell proliferation inhibitory activity, DU 145; assay type: cell-based, human; settings: cells counted 4 days later with Cell Counting Kit-8
Method in brief: as §2

[5] = system: lung carcinoma cell line NCI-H460; test: Cell proliferation inhibitory activity, NCI-H460; assay type: cell-based; settings: cells counted 4 days later with Cell Counting Kit-8
Experimental: as §3

Aurora A = target: T2, Aurora A (Homo sapiens, UniProt O14965); test: In vitro kinase assay, Aurora A; assay type: biochemical; settings: recombinant protein (Upstate)
T2 construct: purchased Upstate Inc. 14-511
T2 sequence (O14965 1-403): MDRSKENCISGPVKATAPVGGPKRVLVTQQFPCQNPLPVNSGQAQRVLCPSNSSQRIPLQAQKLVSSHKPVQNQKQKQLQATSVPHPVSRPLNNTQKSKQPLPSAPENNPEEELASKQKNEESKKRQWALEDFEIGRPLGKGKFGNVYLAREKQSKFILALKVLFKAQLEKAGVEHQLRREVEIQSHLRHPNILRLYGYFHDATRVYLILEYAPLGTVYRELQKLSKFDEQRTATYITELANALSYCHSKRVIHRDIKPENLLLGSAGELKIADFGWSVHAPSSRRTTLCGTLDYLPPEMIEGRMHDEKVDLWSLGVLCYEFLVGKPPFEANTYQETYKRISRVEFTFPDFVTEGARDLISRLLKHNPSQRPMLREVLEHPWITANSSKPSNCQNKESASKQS
Method in brief: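 Recombinant human enzymes assayed per supplier protocol. IC50 derived with compound-free wells set as 0% inhibition and compound- and enzyme-free wells as 100% inhibition.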

[6] = system: pancreatic cancer cell line MIAPaCa-2; test: Cell proliferation inhibitory activity, MIAPaCa-2; assay type: cell-based; settings: Homo sapiens, MIA PaCa-2, 96 h; cells counted 4 days later, Cell Counting Kit-8
Experimental: as §3

CDK1/Cyclin B complex = target: T3, CDK1/Cyclin B complex (Homo sapiens, UniProt P06493); test: In vitro kinase assay, CDK1/Cyclin B complex; assay type: biochemical; settings: recombinant protein (Upstate)
T3 construct: purchased Upstate Inc. 14-450
Experimental: Inhibitory activity against Aurora A, CDK1/Cyclin B complex, CDK2/Cyclin E complex and CDK3/Cyclin E complex were measured by in vitro kinase assay using recombinant proteins. The assays were carried out by using recombinant proteins (Upstate Inc.) for Aurora A, CDK1/Cyclin B complex, CDK2/Cyclin E complex and CDK3/Cyclin E complex (respective cat. nos. 14-511, 14-450, 14-448 and 14-487), in accordance with the procedure described in the product instructions thereof. The 50% inhibitory concentrations (IC50 values) were calculated by assigning measured values in the case of not containing a test compound to an inhibition of 0%, and assigning measured values in the case of not containing a test compound and enzyme to an inhibition of 100%.

recombinant human βARK1 = target: T4, recombinant human βARK1 (Homo sapiens, UniProt P25098); test: Inhibitory activity against βARK1 (33P phosphorylation of synthetic peptide); assay type: biochemical; settings: recombinant human βARK1, 60 minutes at room temperature
T4 construct: made in house; host or cells: Sf-9 insect cells (baculovirus, pBacPAK8)
T4 sequence (P25098 1-689): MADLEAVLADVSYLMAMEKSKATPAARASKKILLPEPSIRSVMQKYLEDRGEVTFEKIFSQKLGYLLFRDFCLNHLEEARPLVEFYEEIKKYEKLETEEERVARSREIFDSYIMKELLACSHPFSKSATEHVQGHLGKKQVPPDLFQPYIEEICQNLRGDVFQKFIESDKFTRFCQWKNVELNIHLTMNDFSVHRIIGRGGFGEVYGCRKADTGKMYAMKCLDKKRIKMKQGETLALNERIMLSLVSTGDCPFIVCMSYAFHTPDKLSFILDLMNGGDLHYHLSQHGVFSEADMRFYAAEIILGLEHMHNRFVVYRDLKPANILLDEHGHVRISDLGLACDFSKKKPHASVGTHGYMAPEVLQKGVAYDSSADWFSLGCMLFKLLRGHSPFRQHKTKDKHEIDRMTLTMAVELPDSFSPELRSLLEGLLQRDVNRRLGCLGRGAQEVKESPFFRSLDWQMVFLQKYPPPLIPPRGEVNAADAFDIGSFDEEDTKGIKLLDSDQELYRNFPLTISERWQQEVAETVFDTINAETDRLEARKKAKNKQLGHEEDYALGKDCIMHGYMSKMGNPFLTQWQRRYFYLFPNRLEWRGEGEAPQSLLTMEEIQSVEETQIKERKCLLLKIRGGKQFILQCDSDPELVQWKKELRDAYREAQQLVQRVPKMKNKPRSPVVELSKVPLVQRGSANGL
Experimental: Human βARK1 was amplified by PCR based on the base sequence of human βARK1 mRNA registered in GenBank (Accession No. M80776) using a human leukocyte cDNA library (Gibco BRL Cat. No. 10421-022) as a template. The amplified cDNA fragment was inserted into a pBacPAK8 vector (Clontech) to construct a plasmid.
Recombinant human βARK1 was expressed using the BacPAK Baculovirus Expression System (Clontech, Cat. No. K1601-1). 1×10^6 Sf-9 cells were adhered to a 35 mm dish in 2.5 mL of TMN-FH Insect Medium containing 10 vol % FBS (Pharminogen, Cat. No. PM-21227M) and cultured overnight at 27° C. On the following day, the medium was removed and 500 ng of the above plasmid, BacPAK6 viral DNA cleaved with Bsu36I (5 μL) and 1.5 mL of the same medium mixed with 4 μL of Bacfectin were added followed by culturing for 5 hours, further adding 1.5 mL of medium and subsequently culturing for 5 days. […] The culture supernatant after 5 days was recovered and a plaque assay was carried out to isolate single plaques. These were then infected into Sf-9 cells and the resulting culture supernatant was designated as Passage 1 (1−3×10^11 pfu/mL). Passage 1 was added to 3×10^7 Sf-9 cells to a multiplicity of infection (MOI) of 0.1 (pfu/cell), suspension culturing was carried out for 5 days using a spinner flask, and the resulting culture supernatant was designated as Passage 2 (4×10^10 pfu/mL) and used as a viral liquid for large-volume expression.
Sf-9 cells at 3×10^9 cells/200 mL were infected by adding Passage 2 to an MOI of 100 followed by addition of medium to bring to a liquid volume of 2 L and further culturing for 3 days. After recovering the cells by centrifugation and washing three times with PBS, the cells were suspended in 100 mL of Lysis Buffer (20 mmol/L HEPES-HCl (pH 7.2), 5 mmol/L EDTA, 3 mmol/L phenylmethylsulfonyl fluoride (PMSF)). After lysing the cells by ultrasonic treatment at low temperature, the supernatant was recovered by centrifuging (45,000×g, 15 minutes) (sup1). NaCl was added to the resulting supernatant to a final concentration of 250 mmol/L followed by ultracentrifugation (300,000×g, 60 minutes) and using the subsequent supernatant as a crude cell extract (sup2).
Purification was carried out with reference to the literature (Benovic, J. L., Methods Enzymol. 1991; 200: 351-362; Kim, C. M. et al., Receptor 1993; 3: 39-55; Sohlemann, P. et al., FEBS Letters 1993; 324: 59-62). The crude cell extract was accurately brought to a volume of 400 mL with Buffer C (20 mmol/L HEPES-HCl (pH 7.2), 5 mmol/L EDTA, 0.02 vol % Triton X-100) followed by loading onto a 50 mL SP-Sepharose FF (Amersham Pharmacia Biotech) column equilibrated with Buffer C. […] ETA was carried out on each fraction using anti-GRK2 antibody (Santa-Cruz Cat. No. SC-562) and the positive fractions were collected (GRK2=βARK1). This was then diluted three-fold with Buffer C and loaded on a 5 mL HiTrap Heparin column (Amersham Pharmacia Biotech) column equilibrated with Buffer C. After washing the column with Wash Buffer (100 mmol/L NaCl, Buffer C), the column was eluted with an NaCl concentration gradient (100 to 600 mmol/L NaCl for 100 minutes, flow rate: 1 mL/min). The positive fractions as determined by ETA were collected and stored in a freezer at −80° C.
A synthetic peptide having an amino acid sequence of biotinated-[…] was used in accordance with a previous report (Chen, C. Y. et al., J. Biol. Chem. 1993; 268: 7825-7831). This synthetic peptide can also be synthesized with reference to known synthesis methods (for example, Chen, C. Y. et al., J. Biol. Chem. 1993; 268: 7825-7831, Biochemistry 1991; 30: 5118-5125). 2 μl of a DMSO solution in which the test compound was diluted to as to be […] the final concentration was dispensed into a 96-well plate (round bottom) (Falcon 351190) (final concentration: 4 vol % DMSO). […]

T3 sequence (P06493 whole entry): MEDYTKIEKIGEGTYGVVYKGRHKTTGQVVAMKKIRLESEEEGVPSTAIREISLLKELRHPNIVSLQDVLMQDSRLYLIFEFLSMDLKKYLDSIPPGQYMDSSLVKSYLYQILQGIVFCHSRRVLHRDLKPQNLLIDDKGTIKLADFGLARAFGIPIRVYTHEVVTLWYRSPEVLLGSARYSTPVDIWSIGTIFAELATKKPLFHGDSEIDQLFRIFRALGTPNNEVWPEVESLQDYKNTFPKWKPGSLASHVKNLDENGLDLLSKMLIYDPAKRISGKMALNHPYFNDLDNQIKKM
T3 sequence (P14635 whole entry partner): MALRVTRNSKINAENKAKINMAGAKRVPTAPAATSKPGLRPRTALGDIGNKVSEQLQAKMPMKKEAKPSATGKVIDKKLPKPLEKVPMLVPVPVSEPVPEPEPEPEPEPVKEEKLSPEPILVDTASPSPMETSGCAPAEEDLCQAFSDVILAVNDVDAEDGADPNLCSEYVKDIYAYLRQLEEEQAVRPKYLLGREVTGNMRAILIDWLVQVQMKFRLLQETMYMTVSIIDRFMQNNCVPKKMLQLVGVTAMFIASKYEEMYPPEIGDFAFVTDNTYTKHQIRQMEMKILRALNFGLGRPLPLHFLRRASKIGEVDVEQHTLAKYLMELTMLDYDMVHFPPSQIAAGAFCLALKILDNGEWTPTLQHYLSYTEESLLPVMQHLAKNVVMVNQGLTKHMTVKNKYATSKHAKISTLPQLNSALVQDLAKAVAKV
T1 sequence (Q00526 whole entry): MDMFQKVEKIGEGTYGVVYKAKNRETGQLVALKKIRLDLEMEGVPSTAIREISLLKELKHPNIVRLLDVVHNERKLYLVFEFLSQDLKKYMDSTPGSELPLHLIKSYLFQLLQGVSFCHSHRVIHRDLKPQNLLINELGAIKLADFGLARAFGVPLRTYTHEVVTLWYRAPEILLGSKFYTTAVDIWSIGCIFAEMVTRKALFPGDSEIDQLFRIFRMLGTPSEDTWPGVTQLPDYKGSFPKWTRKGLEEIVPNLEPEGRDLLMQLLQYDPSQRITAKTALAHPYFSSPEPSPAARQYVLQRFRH
T1 sequence (P24864 whole entry partner): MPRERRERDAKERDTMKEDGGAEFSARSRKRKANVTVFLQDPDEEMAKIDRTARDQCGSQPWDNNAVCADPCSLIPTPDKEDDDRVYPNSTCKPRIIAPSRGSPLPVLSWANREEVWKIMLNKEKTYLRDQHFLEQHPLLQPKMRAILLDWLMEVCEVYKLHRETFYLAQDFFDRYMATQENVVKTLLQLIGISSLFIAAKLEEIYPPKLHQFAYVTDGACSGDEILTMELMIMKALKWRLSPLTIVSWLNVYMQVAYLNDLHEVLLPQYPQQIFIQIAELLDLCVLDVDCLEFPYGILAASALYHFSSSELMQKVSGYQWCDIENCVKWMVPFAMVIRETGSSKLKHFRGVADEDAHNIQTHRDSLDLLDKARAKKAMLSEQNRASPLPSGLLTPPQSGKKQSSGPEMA

IC50 [1] [nM]	IC50 [4] [nM]	IC50 [5] [nM]	IC50 [2] [nM]	IC50 [3] [nM]	SMILES	IC50 (CDK2/Cyclin E complex) [nM]	IC50 (CDK3/Cyclin E complex) [nM]	IC50 ([1]; Homo sapiens, SW-620, 96 h) [nM]	IC50 ([2]; Homo sapiens, 96 h) [nM]	IC50 ([3]; Homo sapiens, IGROV-1, 96 h) [nM]	IC50 (leukemia cell line KG-1a) [nM]	IC50 (Aurora A) [nM]	IC50 [6] [nM]	IC50 ([4]; Homo sapiens, 96 h) [nM]	IC50 ([5]; Homo sapiens, 96 h) [nM]	IC50 (CDK1/Cyclin B complex) [nM]	IC50 (recombinant human βARK1) [nM]
–	–	–	–	–	O=C(CNc1cccc(F)c1)Nc1nc2ccc3[nH]ncc3c2s1 [compound 3]	199	391	1700	4700	4900	100	–	–	–	–	–	–
1800	4200	2000	2800	4500	CC(C)(Nc1ccc(Cl)c(OCCCS(N)(=O)=O)c1)C(=O)Nc1nc2c(C(F)(F)F)cc3[nH]ncc3c2s1 [compound 94]	–	–	–	–	–	–	–	–	–	–	–	–
–	–	–	–	–	CC(C)(Nc1ccc(Cl)c(C(=O)NOCc2ccccc2)c1)C(=O)Nc1nc2c(C(F)(F)F)cc3[nH]ncc3c2s1 [compound 98]	–	128	500	2600	–	–	65	4000	4400	1800	–	–
–	–	–	–	–	O=C(CNc1ccccc1)Nc1nc2ccc3[nH]ncc3c2s1 [compound 104]	412	395	1000	4900	4700	< 100	–	–	–	–	–	–
–	–	–	–	–	O=C(Nc1nc2ccc3[nH]ncc3c2s1)C1(Nc2ccc(Cl)cc2)CCCC1 [compound 115]	154	217	700	3900	4800	< 100	–	–	3200	–	–	–
–	–	–	–	–	O=C(Nc1nc2ccc3[nH]ncc3c2s1)C1(Nc2cccc(O)c2)CC1 [compound 122]	56	63	1100	3100	4900	< 100	168	–	4500	4000	197	–
–	–	–	–	–	Cc1cc2[nH]ncc2c2sc(NC(=O)C3(Nc4ccc(Cl)cc4)CC3)nc12 [compound 127]	128	185	700	4300	4900	< 100	–	–	3000	3100	–	6.2
–	–	–	–	–	CNC(=O)c1cc(NC(C)(C)C(=O)Nc2nc3c(C(F)(F)F)cc4[nH]ncc4c3s2)ccc1F [compound 137]	40	12	200	1900	3000	< 100	–	3100	400	400	39	–
–	–	–	–	–	CC(C)(Nc1ccc(F)c(C(N)=O)c1)C(=O)Nc1nc2c(C(F)(F)F)cc3[nH]ncc3c2s1 [compound 138]	37	12	2100	–	4500	–	263	4300	2300	1600	53	–
